Each structure is given as a SMILES string.

The target of the experiment is T1, Nicotinamide N-methyltransferase (Homo sapiens, UniProt P40261).
T1 sequence (P40261 whole entry): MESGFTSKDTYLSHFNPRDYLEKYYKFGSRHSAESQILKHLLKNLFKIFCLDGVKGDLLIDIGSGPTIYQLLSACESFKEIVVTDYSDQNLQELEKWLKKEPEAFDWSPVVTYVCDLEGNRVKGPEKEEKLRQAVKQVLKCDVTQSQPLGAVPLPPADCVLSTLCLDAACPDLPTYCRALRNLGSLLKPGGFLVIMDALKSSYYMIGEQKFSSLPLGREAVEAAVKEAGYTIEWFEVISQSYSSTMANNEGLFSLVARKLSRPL
Kind of experiment: NNMT Enzymatic Activity Assay. The conditions noted are these: pH 8.6; 37 °C. The procedure:
Enzyme activity assays were performed as previously described with NNMT (16.25 ug/mL, 550 nM) in 50 mM Tris buffer (pH 8.6) containing 1 mM DTT (all final concentrations). The enzyme was incubated with the substrate pyridine compound for 5 min at 37 °C using a heat block before the reaction was initiated by addition of AdoMet (for substrates that were not soluble in water, stocksolutions were prepared in DMSO and diluted to a final DMSO concentration of <5% in the assay mixture). […] For these screens, the final reagent concentrations were 100 uM AdoMet and 2.0 mM substrate and a series of time points were initially investigated (5, 15, 30, and 60 min). At each time point, 15 uL aliquots of the reaction mixture were taken and added to 70 uL of acetonitrile, which served to quench the reaction by causing precipitation of the enzyme.
As usually defined, the Ki is the equilibrium dissociation constant of an inhibitor or competing ligand from its target. On to `NC(=O)c1cnc2ccccc2c1` [quinoline 3-carboxamide], for which affinity was put at a Ki of 9.7 mM. That is a millimolar value. As for `NC(=S)c1cccnc1` [thionicotinamide], the Ki is 6.6 mM. In the case of `c1ccc2c(c1)CCNC2` [1,2,3,4-tetrahydroisoquinoline], the inhibition constant (Ki) amounted to 4.7 mM. This Ki and that of the compound before are within 1.5-fold of each other.

These data come from BindingDB's records for doi:10.1021/acs.biochem.6b00733 (Utrecht University, 2016).
